ChEMBL document CHEMBL3046374, “Preparation of 5-chloro-6-fluoroimidacloprid analogs and comparison of their insecticidal activity in a laboratory test with a 6-chloro-5-fluoro analog” (J Pestic Sci, 2007)

How the values were obtained:
Myzus persicae = experiment: Insecticidal activity against Myzus persicae (green peach aphid) first-instar nymphs fed on compound pre-treated egg plant seedlings or Japanese radish leaves assessed as insect mortality measured 5 days post compound treatment; type: functional
Spodoptera litura = experiment: Insecticidal activity against Spodoptera litura second-instar larvae fed on compound pre-treated cabbage leaves assessed as insect mortality measured 5 days post compound treatment; type: functional
Nilaparvata lugens = experiment: Insecticidal activity against Nilaparvata lugens (brown planthopper) second or third-instar nymphs fed on compound pre-treated rice seedlings assessed as insect mortality measured 5 days post compound treatment; type: functional
[1] = Lipophilicity, logP of the compound at 25 degC; type: physicochemical; conditions: octanol/water

N#C/N=C1/SCCN1Cc1cnc(F)c(Cl)c1
LD90 (Myzus persicae): 50 ppm | LD90 (Spodoptera litura): >200 ppm | LD90 (Nilaparvata lugens): >200 ppm

N#C/N=C1/NCCN1Cc1cnc(F)c(Cl)c1
LD90 (Myzus persicae): 200 ppm | LD90 (Spodoptera litura): >200 ppm | LD90 (Nilaparvata lugens): >200 ppm

O=[N+]([O-])/N=C1/NCCN1Cc1cnc(F)c(Cl)c1
LD90 (Myzus persicae): 200 ppm | logP [1]: 0.98 | LD90 (Spodoptera litura): >200 ppm | LD90 (Nilaparvata lugens): 50 ppm

O=[N+]([O-])/N=C1/NCCN1Cc1cnc(Cl)c(F)c1 [5-FLUOROIMIDACLOPRID]
LD90 (Myzus persicae): 0.2 ppm | logP [1]: 0.79 | LD90 (Spodoptera litura): >50 ppm | LD90 (Nilaparvata lugens): 0.2 ppm

O=[N+]([O-])/N=C1/SCCN1Cc1cnc(F)c(Cl)c1
LD90 (Myzus persicae): >200 ppm | LD90 (Spodoptera litura): >200 ppm | LD90 (Nilaparvata lugens): >200 ppm

O=[N+]([O-])/N=C1\NCCN1Cc1ccc(Cl)nc1 [IMIDACLOPRID]
LD90 (Myzus persicae): 0.2 ppm | LD90 (Spodoptera litura): >50 ppm | LD90 (Nilaparvata lugens): 0.2 ppm

N#C/N=C1/OCCN1Cc1cnc(F)c(Cl)c1
LD90 (Myzus persicae): 200 ppm | LD90 (Spodoptera litura): >200 ppm | LD90 (Nilaparvata lugens): >200 ppm
